Data reported in patent US20220241227A1, “COMPOSITIONS COMPRISING HDAC INHIBITORS AND RETINOIDS” (The Regents of The University of California, priority 2019, published 2022).
Where two headings read alike, the source gives them in different places.

Experiments:
[1] = test system: miR-22; test: miR-22 induction in HCT116 cells; format: cell-based; settings: RA 10 μM, SAHA 5 μM, butyrate 5 mM, propionate 10 mM, valerate 10 mM
From the text: Mean±SD, *p<0.05; **p<0.01; ***p<0.0001 vs. DMSO control, #p<0.05 vs. single agent treatment.

[2] = test system: miR-22; settings: published data, cells not given; cited from earlier work
[3] = test system: colon tumors in xenograft models; settings: combination: RA 0.025 mg/g and butyrate 1.2 mg/g, intraperitoneal, 5 times/week, 2 weeks; cited from earlier work
[4] = test system: HDAC1, HDAC4, and SIRT1; settings: liver cancer Huh7 and colon cancer HCT116 cells, published data; cited from earlier work
[5] = test system: Swiss mice; settings: oral; cited from earlier work
[6] = test system: RARβ; test: RARβ mRNA and protein levels in HCT116 cells; format: cell-based; settings: 48 hrs, RA 10 μM, butyrate 5 mM, SAHA 5 μM

Compound	miR-22 induction [1]	miR-22 induction [2]	other results
CCCCC(=O)O [valerate]	induced	induce miR-22	–
CC(=O)O [acetate]	unable to induce miR-22	–	–
miR-22: tumor suppressor microRNA, SEQ ID NO:1 (AAGCUGCCAGUUGAAGAACUGU; listed as RNA, chemistry not fully specified; listed as Homo sapiens)	–	–	treatment of colon tumors in xenograft models [3]: effective in treating colon tumors; HDAC1, HDAC4, and SIRT1 levels [4]: reduced
CC1=C(/C=C/C(C)=C/C=C/C(C)=C/C(=O)O)C(C)(C)CCC1 [RA, all-trans retinoic acid]	induced	–	LD50 [5]: 1.1 mg/g
CCC(=O)O [propionate]	induced	induce miR-22	–
O=CO [formate]	unable to induce miR-22	–	–
O=C(CCCCCCC(=O)Nc1ccccc1)NO [SAHA, suberanilohydroxamic acid]	induced	induces miR-22	–
EGF: promotes growth and does not has HDAC inhibitory effect (NSDSECPLSHDGYCLHDGVCMYIEALDKYACNCVVGYIGERCQYRDLKWWELR; Epidermal growth factor; UniProt P01133 971-1023, looked up)	–	–	RARβ expression (mRNA and protein) [6]: did not induce RARβ
